Results published in PubChem BioAssay AID256 (DTP/NCI, 2004).
Values joined by “and” are separate entries in the source; they are usually repeats but may differ in a detail not shown here. Equal values may be shown once. Toxic doses and inconclusive results are not listed. How the source made its calls: active means survival T/C of 150% or more; inactive means T/C below 125% in these data.

System: CD2F1 mice, L1210 leukemia ip, survival T/C
Assay: NCI In Vivo Anticancer Drug Screen. Data for tumor model L1210 Leukemia (intraperitoneal) in CD2F1 (CDF1) mice
Conditions: higher = longer survival
Method in brief: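 Vehicle-treated tumor-bearing mice served as controls (C) for compound-treated mice (T). Reported figure is T divided by C.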

[1] = endpoint: mean survival time, dose: 25.0 mg/kg/injection, schedule: Q04DX002 (ip), vehicle: saline with Tween-80
[2] = endpoint: mean survival time, dose: 50.0 mg/kg/injection, schedule: Q04DX002 (ip), vehicle: saline with Tween-80
[3] = endpoint: mean survival time, dose: 100.0 mg/kg/injection, schedule: Q04DX002 (ip), vehicle: saline with Tween-80
[4] = endpoint: mean survival time, dose: 100.0 mg/kg/injection, schedule: Q04DX003 (ip), vehicle: saline
[5] = endpoint: mean survival time, dose: 200.0 mg/kg/injection, schedule: Q04DX003 (ip), vehicle: saline
[6] = endpoint: mean survival time, dose: 400.0 mg/kg/injection, schedule: Q04DX003 (ip), vehicle: saline
[7] = endpoint: mean survival time, dose: 100.0 mg/kg/injection, schedule: Q01DX001 (ip), vehicle: saline with Tween-80
[8] = endpoint: mean survival time, dose: 200.0 mg/kg/injection, schedule: Q01DX001 (ip), vehicle: saline with Tween-80
[9] = endpoint: mean survival time, dose: 75.0 mg/kg/injection, schedule: Q01DX001 (ip), vehicle: saline
[10] = endpoint: mean survival time, dose: 150.0 mg/kg/injection, schedule: Q01DX001 (ip), vehicle: saline
[11] = endpoint: mean survival time, dose: 25.0 mg/kg/injection, schedule: Q01DX009 (ip), vehicle: saline with Tween-80
[12] = endpoint: mean survival time, dose: 50.0 mg/kg/injection, schedule: Q01DX009 (ip), vehicle: saline with Tween-80
[13] = endpoint: mean survival time, dose: 100.0 mg/kg/injection, schedule: Q01DX009 (ip), vehicle: saline with Tween-80
[14] = endpoint: mean survival time, dose: 200.0 mg/kg/injection, schedule: Q01DX009 (ip), vehicle: saline with Tween-80
[15] = endpoint: mean survival time, dose: 400.0 mg/kg/injection, schedule: Q01DX009 (ip), vehicle: saline with Tween-80
[16] = endpoint: mean survival time, dose: 100.0 mg/kg/injection, schedule: Q04DX003 (ip), vehicle: saline with Tween-80
[17] = endpoint: mean survival time, dose: 200.0 mg/kg/injection, schedule: Q04DX003 (ip), vehicle: saline with Tween-80
[18] = endpoint: mean survival time, dose: 400.0 mg/kg/injection, schedule: Q04DX003 (ip), vehicle: saline with Tween-80
[19] = endpoint: mean survival time, dose: 200.0 mg/kg/injection, schedule: Q04DX002 (ip), vehicle: saline with Tween-80
[20] = endpoint: mean survival time, dose: 400.0 mg/kg/injection, schedule: Q04DX002 (ip), vehicle: saline with Tween-80
[21] = endpoint: mean survival time, dose: 50.0 mg/kg/injection, schedule: Q01DX009 (ip), vehicle: Klucel (hydroxypropylcellulose) (HPC)
[22] = endpoint: mean survival time, dose: 100.0 mg/kg/injection, schedule: Q01DX009 (ip), vehicle: Klucel (hydroxypropylcellulose) (HPC)
[23] = endpoint: mean survival time, dose: 200.0 mg/kg/injection, schedule: Q01DX009 (ip), vehicle: Klucel (hydroxypropylcellulose) (HPC)
[24] = endpoint: mean survival time, dose: 400.0 mg/kg/injection, schedule: Q01DX001 (ip), vehicle: saline with Tween-80

Measured: T/C

Cc1ccc(S(=O)(=O)N/N=C/c2ccc(C(=O)O)cc2)cc1
inactive: endpoint: mean survival time, dose: 12.5 mg/kg/injection, schedule: Q04DX003 (ip), vehicle: other 101 % of control | endpoint: mean survival time, dose: 25.0 mg/kg/injection, schedule: Q04DX003 (ip), vehicle: other 97 % of control | endpoint: mean survival time, dose: 50.0 mg/kg/injection, schedule: Q04DX003 (ip), vehicle: other 106 % of control | endpoint: mean survival time, dose: 100.0 mg/kg/injection, schedule: Q04DX003 (ip), vehicle: other 95 % of control | endpoint: mean survival time, dose: 200.0 mg/kg/injection, schedule: Q04DX003 (ip), vehicle: other 95 % of control | endpoint: mean survival time, dose: 400.0 mg/kg/injection, schedule: Q04DX003 (ip), vehicle: other 106 % of control

O=[N+]([O-])c1ccc(Oc2ccc(S(=O)(=O)O)cc2)cc1
inactive: [1] 95 % of control | [2] 103 % of control | [3] 91 % of control

CCC(C)(O)C(C)N(C)c1ccccc1 (centres undefined)
inactive: [4] 102 % of control and 97 % of control | [5] 102 % of control and 100 % of control | [6] 102 % of control and 106 % of control

C[n+]1c2ccccc2c(Cl)c2ccccc21
inactive: [7] 104 % of control | [8] 109 % of control

C(CC1CO1)CC1OC1CC1CO1 (centres undefined)
active: endpoint: mean survival time, dose: 133.0 mg/kg/injection, schedule: Q01DX009 (ip), vehicle: saline 156 % of control
inactive: endpoint: mean survival time, dose: 39.0 mg/kg/injection, schedule: Q01DX009 (ip), vehicle: saline 109 % of control | [9] 109 % of control | [10] 119 % of control

O=C(N/N=C\c1cc(Br)cc(Br)c1O)N/N=C/c1cc(Br)cc(Br)c1O
inactive: [11] 117 % of control | [12] 104 % of control and 111 % of control | [13] 116 % of control and 122 % of control | [14] 118 % of control and 94 % of control | [15] 116 % of control and 88 % of control

CCCCCCOc1ccc(C=Nc2ccc(CC)cc2)cc1
inactive: [16] 88 % of control | [17] 91 % of control | [18] 88 % of control

COc1cccc(CCNC(=O)CC#N)c1
inactive: [13] 97 % of control | [14] 98 % of control | [15] 101 % of control

CSCCCNC(=O)c1csc(CCNC(=O)c2ccccc2)n1
inactive: [13] 108 % of control | [14] 101 % of control | [15] 101 % of control

CS(=O)(=O)SC(F)(F)F
inactive: endpoint: mean survival time, dose: 5.0 mg/kg/injection, schedule: Q01DX001 (ip), vehicle: saline 103 % of control

CCOC(=O)c1ccc(NC(=O)N(C)C2CCCCC2)cc1
inactive: [12] 95 % of control and 102 % of control | [13] 100 % of control and 104 % of control | [3] 91 % of control and 92 % of control | [16] 92 % of control | [14] 100 % of control and 104 % of control | [19] 92 % of control and 109 % of control | [17] 96 % of control | [20] 102 % of control | [18] 91 % of control

CC(/C=N/N(C)C)=N\N(C)C
inactive: endpoint: mean survival time, dose: 50.0 mg/kg/injection, schedule: Q01DX009 (ip), vehicle: saline 108 % of control | endpoint: mean survival time, dose: 100.0 mg/kg/injection, schedule: Q01DX009 (ip), vehicle: saline 96 % of control

CN(C)Cc1cccc2ccccc12
inactive: endpoint: mean survival time, dose: 12.5 mg/kg/injection, schedule: Q01DX009 (ip), vehicle: Klucel (hydroxypropylcellulose) (HPC) 109 % of control | endpoint: mean survival time, dose: 25.0 mg/kg/injection, schedule: Q01DX009 (ip), vehicle: Klucel (hydroxypropylcellulose) (HPC) 109 % of control | [21] 97 % of control

CC(C)(C)CC(C)(C)c1ccc(OCCOc2ccc(NS(=O)(=O)c3ccc(N)cc3)cc2)cc1
inactive: [22] 95 % of control | [16] 97 % of control | [23] 96 % of control | [17] 97 % of control | endpoint: mean survival time, dose: 400.0 mg/kg/injection, schedule: Q01DX009 (ip), vehicle: Klucel (hydroxypropylcellulose) (HPC) 93 % of control | [18] 95 % of control

ON=C1c2c(ccc3ccccc23)-c2ccc3ccccc3c21
inactive: [7] 95 % of control | [13] 98 % of control | [8] 96 % of control | [14] 95 % of control | [24] 102 % of control | [15] 93 % of control

COc1ccc(CNCCO)cc1
inactive: [12] 96 % of control | [13] 102 % of control | [14] 98 % of control

O=c1[nH]cc([N+](=O)[O-])c(=O)[nH]1
inactive: [3] 97 % of control | [19] 97 % of control | [20] 101 % of control

O=C(O)c1ccccc1NCNc1ccccc1C(=O)O
inactive: [16] 100 % of control | [17] 93 % of control | [18] 110 % of control

COc1ccc(NC(=O)Oc2cc(=O)oc3ccccc23)c(Cl)c1
inactive: [21] 107 % of control | [22] 96 % of control | [23] 100 % of control

COC(=O)NC1C(C)OC(OC2C/C=C(/C)C3C=CC4C(OC5CC(OC6CC(OC7CC(O)C(O)C(C)O7)C(OC7CC(O)C(OC)C(C)O7)C(C)O6)C(O)C(C)O5)C(C)CC(C)C4C3(C)/C(O)=C3\C(=O)OC4(CC(C)C(CO)=CC4/C=C\2C)C3=O)CC1(C)[N+](=O)[O-] (centres undefined)
inactive: endpoint: median survival time, dose: 12.5 mg/kg/injection, schedule: Q01DX009 (ip), vehicle: water 109 % of control | endpoint: median survival time, dose: 25.0 mg/kg/injection, schedule: Q01DX009 (ip), vehicle: water 118 % of control | endpoint: median survival time, dose: 50.0 mg/kg/injection, schedule: Q01DX009 (ip), vehicle: water 110 % of control

O=c1cc(NCCCCc2ccccc2)[nH]c(=O)[nH]1
inactive: [7] 94 % of control | [8] 91 % of control | [24] 91 % of control

C#CCOC(=O)NCCC
inactive: endpoint: mean survival time, dose: 100.0 mg/kg/injection, schedule: Q04DX003 (ip), vehicle: Klucel (hydroxypropylcellulose) (HPC) 96 % of control | endpoint: mean survival time, dose: 200.0 mg/kg/injection, schedule: Q04DX003 (ip), vehicle: Klucel (hydroxypropylcellulose) (HPC) 100 % of control

CC(C)(CCl)c1ccc(C(C)(C)CCl)cc1
inactive: [16] 100 % of control | [17] 91 % of control | [18] 100 % of control

O=C(O)CCCCCCCC(Br)C(Br)CCCCCCCC(=O)O (centres undefined)
inactive: [1] 95 % of control | [2] 91 % of control | [3] 91 % of control | [19] 95 % of control

Clc1ncc2cnccn12
inactive: [13] 101 % of control

Cc1cc(C)c(O)c(C(=O)CC2CC(=O)NC(=O)C2)c1
inactive: [13] 100 % of control | [16] 95 % of control | [14] 105 % of control | [17] 97 % of control | [15] 101 % of control | [18] 95 % of control

FC1(F)C(Cl)=[C]([Hg][C]2=C(Cl)C(F)(F)C(F)(F)C(F)(F)C2(F)F)C(F)(F)C(F)(F)C1(F)F
inactive: endpoint: mean survival time, dose: 37.5 mg/kg/injection, schedule: Q04DX003 (ip), vehicle: saline 104 % of control | [9] 106 % of control | endpoint: mean survival time, dose: 75.0 mg/kg/injection, schedule: Q04DX003 (ip), vehicle: saline 97 % of control | [10] 95 % of control

C(/C=C/c1ccccc1)=Nc1ccc(CCc2ccc(N=C/C=C/c3ccccc3)cc2)cc1
inactive: [7] 103 % of control | [8] 93 % of control | [24] 91 % of control

O=[N+]([O-])c1cc(F)ccc1O
inactive: [13] 96 % of control

O=S1(=O)Cc2ccc(Br)cc2C1
inactive: [13] 103 % of control | [16] 90 % of control | [14] 101 % of control | [17] 91 % of control | [15] 97 % of control | [18] 90 % of control

CN1C(=O)CC(c2ccc(N3C(=O)C=CC3=O)cc2)C1=O (centres undefined)
inactive: endpoint: mean survival time, dose: 6.25 mg/kg/injection, schedule: Q04DX002 (ip), vehicle: saline with Tween-80 96 % of control | endpoint: mean survival time, dose: 12.5 mg/kg/injection, schedule: Q04DX002 (ip), vehicle: saline with Tween-80 103 % of control | [1] 96 % of control

CC(=O)Oc1ccc2ccccc2c1
inactive: [11] 100 % of control | [12] 107 % of control | [7] 107 % of control

O=[N+]([O-])c1ccc(S(=O)(=O)Cl)c(Cl)c1
inactive: endpoint: mean survival time, dose: 18.8 mg/kg/injection, schedule: Q01DX009 (ip), vehicle: saline with Tween-80 91 % of control | endpoint: mean survival time, dose: 37.5 mg/kg/injection, schedule: Q01DX009 (ip), vehicle: saline with Tween-80 100 % of control | endpoint: mean survival time, dose: 75.0 mg/kg/injection, schedule: Q01DX009 (ip), vehicle: saline with Tween-80 95 % of control | [4] 98 % of control | [5] 89 % of control | [6] 86 % of control
